Measured values as given in patent US8829007B2 (priority 2009, dated 2014).

test system: influenza A virus (A/PR/8/34); experiment: microbe, parasite or virus in culture; assay type: cell-based; settings: Influenza A virus, PR/8, MDCK, MDCK cells infected with A/PR/8/34, cell protection (CPE); read-out: IC50 (mean all)

`Cc1csc(NC(=O)N2CCC[C@H](CNc3nc(-c4c[nH]c5ncc(Cl)cc45)ncc3F)C2)c1` [Compound 130, (R)-3-((2-(5-chloro-1H-pyrrolo[2,3-b]pyridin-3-yl)-5-fluoropyrimidin-4-ylamino)methyl)-N-(4-methylthiophen-2-yl)piperidine-1-carboxamide] and `CC(C)C(=O)N1CCC[C@@H](CNc2nc(-c3c[nH]c4ncc(Cl)cc34)ncc2F)C1` [Compound 34, (S)-1-(3-((2-(5-chloro-1H-pyrrolo[2,3-b]pyridin-3-yl)-5-fluoropyrimidin-4-ylamino)methyl)piperidin-1-yl)-2-methylpropan-1-one] cannot be ordered by IC50: under 5 µM for the first, under 5 µM for the second.

`O=C(c1ccccc1F)N1CCC[C@H](CNc2nc(-c3c[nH]c4ncc(Cl)cc34)ncc2F)C1` [Compound 58, (R)-(3-((2-(5-chloro-1H-pyrrolo[2,3-b]pyridin-3-yl)-5-fluoropyrimidin-4-ylamino)methyl)piperidin-1-yl)(2-fluorophenyl)methanone] and `CCOc1ccccc1C(=O)N1CCC[C@H](CNc2nc(-c3c[nH]c4ncc(Cl)cc34)ncc2F)C1` [Compound 158, (R)-(3-((2-(5-chloro-1H-pyrrolo[2,3-b]pyridin-3-yl)-5-fluoropyrimidin-4-ylamino)methyl)piperidin-1-yl)(2-ethoxyphenyl)methanone] cannot be ordered by IC50: under 5 µM for the first, under 5 µM for the second.

`CCCC(=O)N1CCCC[C@H]1CNc1nc(-c2c[nH]c3ncccc23)ncc1F` [Compound 258, (S)-1-(2-((5-fluoro-2-(1H-pyrrolo[2,3-b]pyridin-3-yl)pyrimidin-4-ylamino)methyl)piperidin-1-yl)butan-1-one] and `CC(=O)N1CCCC[C@H]1CNc1nc(-c2c[nH]c3ncccc23)ncc1F` [Compound 256, (S)-1-(2-((5-fluoro-2-(1H-pyrrolo[2,3-b]pyridin-3-yl)pyrimidin-4-ylamino)methyl)piperidin-1-yl)ethanone] fall in the same range of IC50: 5 to 20 µM for the first, 5 to 20 µM for the second.

First: Fc1cnc(-c2c[nH]c3ncc(Cl)cc23)nc1NC[C@@H]1CCCN(CC2CCCCC2)C1 [Compound 134, (S)-2-(5-chloro-1H-pyrrolo[2,3-b]pyridin-3-yl)-N-((1-(cyclohexylmethyl)piperidin-3-yl)methyl)-5-fluoropyrimidin-4-amine]
Second: OC1CCCC[C@@H]1CNc1nc(-c2c[nH]c3ncc(Cl)cc23)ncc1F (stereo partly drawn) [Compound 12, (2R)-2-((2-(5-chloro-1H-pyrrolo[2,3-b]pyridin-3-yl)-5-fluoropyrimidin-4-ylamino)methyl)cyclohexanol]
The IC50 of the first is lower: 5 to 20 µM for the first, over 20 µM for the second. The first is the more potent here.

First: COc1ccccc1C(=O)N1CCCC[C@@H]1CNc1nc(-c2c[nH]c3ncc(Cl)cc23)ncc1F [Compound 190, (R)-(2-((2-(5-chloro-1H-pyrrolo[2,3-b]pyridin-3-yl)-5-fluoropyrimidin-4-ylamino)methyl)piperidin-1-yl)(2-methoxyphenyl)methanone]
Second: O=C(c1nccs1)N1CCCC[C@H]1CNc1nc(-c2c[nH]c3ncc(Cl)cc23)ncc1F [Compound 165, (S)-(2-((2-(5-chloro-1H-pyrrolo[2,3-b]pyridin-3-yl)-5-fluoropyrimidin-4-ylamino)methyl)piperidin-1-yl)(thiazol-2-yl)methanone]
The IC50 of the first is lower: 5 to 20 µM for the first, over 20 µM for the second. The first is the more potent here.

`O=C(c1ccccc1Oc1ccccc1)N1CCC[C@H](CNc2nc(-c3c[nH]c4ncc(Cl)cc34)ncc2F)C1` [Compound 150, (R)-(3-((2-(5-chloro-1H-pyrrolo[2,3-b]pyridin-3-yl)-5-fluoropyrimidin-4-ylamino)methyl)piperidin-1-yl)(2-phenoxyphenyl)methanone] was tested, and the IC50 was 5 to 20 µM.

same assay, conditions: Influenza A virus, PR/8, MDCK, MDCK cells infected with A/PR/8/34; survival of infected cells; class symbols; read-out: IC50 (mean all)

Compared with `CC(C)CC(=O)N1CCC[C@H](CNc2ccnc(-c3c[nH]c4ncc(Cl)cc34)n2)C1` [Compound 494, (R)-1-(3-((2-(5-chloro-1H-pyrrolo[2,3-b]pyridin-3-yl)pyrimidin-4-ylamino)methyl)piperidin-1-yl)-3-methylbutan-1-one], `CN(C)[C@H]1CCCC[C@@H]1Nc1nc(-c2c[nH]c3ncc(Cl)cc23)ncc1F` [Compound 523, (1S,2S)—N1-(2-(5-chloro-1H-pyrrolo[2,3-b]pyridin-3-yl)-5-fluoropyrimidin-4-yl)-N2,N2-dimethylcyclohexane-1,2-diamine] is higher in IC50: 5 to 20 µM for the first, over 20 µM for the second. The first is the more potent here.

Work on `O=C1CC[C@H](CNc2nc(-c3c[nH]c4ncc(Cl)cc34)ncc2F)N1` [Compound 503] yielded an IC50 of under 5 µM.

same assay, conditions: Influenza A virus, PR/8, MDCK, mean all; A/PR/8/34 infected MDCK cells, CPE assay; read-out: IC50

Compared with `O=C(OC1CCOC1)N1CC(Nc2nc(-c3c[nH]c4ncc(Cl)cc34)ncc2F)C1` [Compound 422, (S)-tetrahydrofuran-3-yl 3-((2-(5-chloro-1H-pyrrolo[2,3-b]pyridin-3-yl)-5-fluoropyrimidin-4-ylamino)azetidine-1-carboxylate], `CCOC(=O)N1CCC[C@H](Nc2nc(-c3c[nH]c4ncc(Cl)cc34)ncc2F)C1` [Compound 441] is lower in IC50: over 20 µM for the first, 5 to 20 µM for the second. The second is the more potent here.

First: O=C(N[C@@H]1CCCC[C@H]1Nc1nc(-c2c[nH]c3ncccc23)ncc1F)C1CCCC1 [Compound 359, N-[(1R,2R)-2-[[5-fluoro-2-(1H-pyrrolo[2,3-b]pyridin-3-yl)pyrimidin-4-yl]amino]cyclohexyl]cyclopentanecarboxamide]
Second: CCCC(=O)N[C@@H]1CCCC[C@@H]1Nc1nc(-c2c[nH]c3ncc(Cl)cc23)ncc1F (relative stereo) [Compound 334, N-[cis-2-[[2-(5-chloro-1H-pyrrolo[2,3-b]pyridin-3-yl)-5-fluoro-pyrimidin-4-yl]amino]cyclohexyl]butanamide]
The IC50 of the first is higher: over 20 µM for the first, 5 to 20 µM for the second. The second is the more potent here.

`CCS(=O)(=O)N1CC[C@H](Nc2nc(-c3c[nH]c4ncc(Cl)cc34)ncc2F)C1` [Compound 399, (S)-2-(5-chloro-1H-pyrrolo[2,3-b]pyridin-3-yl)-N-(1-(ethylsulfonyl)pyrrolidin-3-yl)-5-fluoropyrimidin-4-amine] and `CC(C)C(=O)N1CCC[C@H](Nc2nc(-c3c[nH]c4ncc(Cl)cc34)ncc2F)C1` [Compound 436] cannot be ordered by IC50: under 5 µM for the first, under 5 µM for the second.

Compared with `CC1(C(=O)N2CCC[C@H](Nc3nc(-c4c[nH]c5ncc(Cl)cc45)ncc3F)C2)CC1` [Compound 445], `CC(C)(C)C(=O)N1CCC[C@H](Nc2nc(-c3c[nH]c4ncc(Cl)cc34)ncc2F)C1` [Compound 437] is higher in IC50: under 5 µM for the first, over 20 µM for the second. The first is the more potent here.

same assay, conditions: Influenza A virus, PR/8, MDCK; read-out: IC50 (mean all)

Work on `O=C(Oc1cccc(C(F)(F)F)c1)N1CCC[C@H](CNc2nc(-c3c[nH]c4ncc(Cl)cc34)ncc2F)C1` [Compound 72, (R)-3-(trifluoromethyl)phenyl 3-((2-(5-chloro-1H-pyrrolo[2,3-b]pyridin-3-yl)-5-fluoropyrimidin-4-ylamino)methyl)piperidine-1-carboxylate] yielded an IC50 of 5 to 20 µM.

same assay, conditions: MDCK cells infected with A/PR/8/34, cell protection (CPE); read-out: IC50 (mean all)

For `NC1CCCCC1Nc1nc(-c2c[nH]c3ncccc23)ncc1F` (centres unmarked) [Compound 4, N1-(5-fluoro-2-(1H-pyrrolo[2,3-b]pyridin-3-yl)pyrimidin-4-yl)cyclohexane-1,2-diamine], the IC50 was over 20 µM.

same assay, conditions: MDCK cells infected with A/PR/8/34; survival of infected cells; class symbols; read-out: IC50 (mean all)

For `COC(=O)CCC(=O)N1CCCC(CNc2ccnc(-c3c[nH]c4ncc(Cl)cc34)n2)C1` (centres unmarked) [Compound 492], the IC50 was 5 to 20 µM.

same assay, conditions: mean all; A/PR/8/34 infected MDCK cells, CPE assay; read-out: IC50

First: CCS(=O)(=O)N1CCC(Nc2nc(-c3c[nH]c4ncc(Cl)cc34)ncc2F)C1 (centres unmarked) [Compound 407]
Second: O=C(OC1CCOC1)N1CCC(Nc2nc(-c3c[nH]c4ncc(Cl)cc34)ncc2F)C1 (centres unmarked) [Compound 421]
The IC50 of the first is higher: over 20 µM for the first, 5 to 20 µM for the second.

For `CC(=O)NC1CCCCC1Nc1nc(-c2c[nH]c3ncc(Cl)cc23)ncc1F` (centres unmarked) [Compound 429], the IC50 was 5 to 20 µM.

same assay, conditions: read-out: IC50 (mean all)

“(R)-ethyl 3-((2-(5-chloro-1H-pyrrolo[2,3-b]pyridin-3-yl)pyrimidin-4-ylamino)methyl)piperidine-1-carboxylate [Compound 495]” gave an IC50 of 5 to 20 µM.
